{
  "source": "paper PMC6198068",
  "about": "“Discovery of a Novel Nav1.7 Inhibitor From Cyriopagopus albostriatus Venom With Potent Analgesic Efficacy” (Frontiers in Pharmacology, 2018)",
  "key": {"[1]": {"system": "formalin-induced paw licking in mice", "experiment": "Formalin-induced paw licking", "assay_type": "in vivo, ICR mice", "settings": "for paw licking time, Phase I: control 90.3 ± 6.6 s; for paw licking time, Phase I / paw licking time, Phase II: mean ± SEM, n = 6–8; for paw licking time, Phase II: control 197.7 ± 20.7 s", "experimental": "The ICR mice (18–22 g) used in this study were purchased from the Experimental Animal Center of SLac-kinda (Changsha, China). The animals were maintained at 20–25°C and freely allowed to standard rodent chow and water ad libitum. Ethical approval for in vivo experiments in animals was approved by the Animal Care and Use Committee (ACUC) at the Hunan Province Animal Management Office (HPAMO).\nA formalin test was performed according to the previous method ([Owoyele et al., 2005]). […] The time spent licking the injected paw by each mouse was recorded by a digital stopwatch during Phase I (0–15 min post-injection) and Phase II (15–40 min post-injection)."}, "[2]": {"molecular_target": "T1, Nav1.7 (Homo sapiens, UniProt Q15858)", "T1 construct": "expressed in transfected cells; host or cells: HEK293T", "T1 sequence (O60939 30-215)": "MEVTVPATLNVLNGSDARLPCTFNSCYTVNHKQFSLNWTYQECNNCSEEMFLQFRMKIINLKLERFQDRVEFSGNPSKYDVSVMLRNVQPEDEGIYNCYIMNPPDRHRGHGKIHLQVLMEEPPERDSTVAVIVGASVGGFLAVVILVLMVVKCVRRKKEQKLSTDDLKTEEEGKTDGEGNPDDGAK", "T1 sequence (Q15858 other isoform, or with tags, fused parts or gaps)": "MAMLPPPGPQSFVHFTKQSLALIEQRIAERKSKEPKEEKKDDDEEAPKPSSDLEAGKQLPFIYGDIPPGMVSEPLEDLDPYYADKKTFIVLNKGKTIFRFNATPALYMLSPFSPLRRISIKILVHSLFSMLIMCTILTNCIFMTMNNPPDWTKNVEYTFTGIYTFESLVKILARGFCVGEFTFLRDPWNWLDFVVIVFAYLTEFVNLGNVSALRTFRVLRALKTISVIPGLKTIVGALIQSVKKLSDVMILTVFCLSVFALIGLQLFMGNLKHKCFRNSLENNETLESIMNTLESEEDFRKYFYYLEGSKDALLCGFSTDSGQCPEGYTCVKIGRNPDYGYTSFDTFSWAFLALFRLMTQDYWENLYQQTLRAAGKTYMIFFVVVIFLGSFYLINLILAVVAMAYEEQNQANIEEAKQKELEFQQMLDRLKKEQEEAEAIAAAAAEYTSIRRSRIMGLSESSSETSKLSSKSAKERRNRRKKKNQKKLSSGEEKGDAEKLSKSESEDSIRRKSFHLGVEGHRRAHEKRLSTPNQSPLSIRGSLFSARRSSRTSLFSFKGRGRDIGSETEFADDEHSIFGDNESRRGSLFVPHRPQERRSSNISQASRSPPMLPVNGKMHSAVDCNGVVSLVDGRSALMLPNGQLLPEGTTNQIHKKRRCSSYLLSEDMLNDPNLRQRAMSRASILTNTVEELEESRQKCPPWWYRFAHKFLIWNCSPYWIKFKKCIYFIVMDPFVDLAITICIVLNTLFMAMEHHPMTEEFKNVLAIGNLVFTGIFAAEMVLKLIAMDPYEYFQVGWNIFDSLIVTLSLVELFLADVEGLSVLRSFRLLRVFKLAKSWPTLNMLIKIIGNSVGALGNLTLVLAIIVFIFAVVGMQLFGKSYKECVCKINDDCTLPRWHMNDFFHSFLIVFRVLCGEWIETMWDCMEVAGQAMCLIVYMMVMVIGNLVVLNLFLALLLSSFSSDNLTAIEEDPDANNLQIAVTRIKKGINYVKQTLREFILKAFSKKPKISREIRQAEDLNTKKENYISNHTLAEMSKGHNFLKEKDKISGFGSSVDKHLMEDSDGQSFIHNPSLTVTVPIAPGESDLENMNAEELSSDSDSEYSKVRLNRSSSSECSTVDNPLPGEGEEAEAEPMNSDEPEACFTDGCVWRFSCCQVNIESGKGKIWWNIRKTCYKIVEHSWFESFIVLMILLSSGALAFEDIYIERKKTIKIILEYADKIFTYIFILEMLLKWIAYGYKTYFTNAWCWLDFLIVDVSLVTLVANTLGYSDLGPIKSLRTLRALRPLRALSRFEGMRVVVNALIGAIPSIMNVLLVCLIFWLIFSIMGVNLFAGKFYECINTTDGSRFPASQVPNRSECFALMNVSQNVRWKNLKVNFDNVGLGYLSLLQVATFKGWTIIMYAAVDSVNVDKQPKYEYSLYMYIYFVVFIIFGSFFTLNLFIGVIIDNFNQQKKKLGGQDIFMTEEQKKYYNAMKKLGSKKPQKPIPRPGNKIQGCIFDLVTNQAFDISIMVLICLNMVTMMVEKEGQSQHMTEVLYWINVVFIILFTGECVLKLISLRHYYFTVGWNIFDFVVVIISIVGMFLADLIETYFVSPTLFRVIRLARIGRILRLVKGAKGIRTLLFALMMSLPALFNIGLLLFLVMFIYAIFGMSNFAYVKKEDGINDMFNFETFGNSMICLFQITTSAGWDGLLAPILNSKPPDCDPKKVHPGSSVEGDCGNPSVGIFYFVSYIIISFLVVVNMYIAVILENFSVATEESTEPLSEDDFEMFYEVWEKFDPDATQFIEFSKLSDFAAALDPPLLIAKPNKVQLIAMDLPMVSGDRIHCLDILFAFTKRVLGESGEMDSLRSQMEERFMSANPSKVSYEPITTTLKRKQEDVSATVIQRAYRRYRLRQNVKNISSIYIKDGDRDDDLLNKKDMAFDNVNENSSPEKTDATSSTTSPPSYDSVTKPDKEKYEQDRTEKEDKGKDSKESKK", "T1 sequence (Q07699 19-218, further chain)": "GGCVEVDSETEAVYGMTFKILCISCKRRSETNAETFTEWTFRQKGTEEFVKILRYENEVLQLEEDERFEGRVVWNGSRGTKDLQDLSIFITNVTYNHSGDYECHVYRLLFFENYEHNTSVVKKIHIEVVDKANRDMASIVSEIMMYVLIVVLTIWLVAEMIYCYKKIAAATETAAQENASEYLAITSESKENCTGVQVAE", "experiment": "Use/frequency-dependent inhibition of Nav1.7", "assay_type": "cell-based", "settings": "n = 4-5; for IC50: read-out: IC50 Nav1.7, repetitive pulses", "source_text": "(§1) The cDNA genes encoding rat Nav1.4 and human Nav1.7 were subcloned into vectors pRGB4 and pcDNA3.1-mod, respectively. Mutations of rNav1.4 (N655D, Q657E, and N655D/Q657E) and hNav1.7 (D816N, E818Q, and D816N/E818Q) were constructed using the Gene Tailor Site-Directed Mutagenesis system (Invitrogen, Carlsbad, CA, United States), according to the manufacturer’s instructions. Nav1.2–Nav1.7 and mutant plasmids together with eGFP were transiently transfected into HEK293T cells while Nav1.8 together with eGFP was transiently transfected into ND7/23 cells by Lipofectamine 2000 (Invitrogen, Carlsbad, CA, United States). Additionally, plasmids β1- and β2-eGFP encoding the human β1 and β2 subunits, respectively, were co-transfected with those encoding WT Nav1.7 and Nav1.7 mutations in HEK293T cells. Human Nav1.9 was transfected into ND7/23 cells according to a previous report ([Zhou et al., 2017]). […] Cells with green fluorescent protein fluorescence were selected for whole-cell patch-clamp recordings 24 h after transfection.\n(§2) Whole-cell patch-clamp recordings were performed at room temperature (20–25°C) using an EPC 10 USB Patch Clamp Amplifier (HEKA, Elektronik, Lambrecht, Germany). […] Data was analyzed by software Igo Pro 6.10A (WaveMetrics, Lake Oswego, OR, United States), SigmaPlot 10.0 (Sigma-Aldrich, St. Louis, MO, United States), OriginPro 8 (OriginLab Corp., Northampton, MA, United States), and GraphPad Prism 5 (GraphPad Software, San Diego, CA, United States). […]\nFast inactivation time constants were calculated by fitting current decay traces with a single exponential function using the I–V protocol described above. Recovery from fast-inactivation (repriming) was assessed by using a two-pulse protocol consisting of a depolarizing pulse to −10 mV for 50 ms to inactivate channels, followed by a step to −100 mV of variable duration (1 to 1024 ms) to promote recovery, and 50 ms test pulse to −10 mV to assess availability of channels. […]"}, "[3]": {"molecular_target": "T2, Nav1.6 (Homo sapiens, UniProt Q9UQD0)", "T2 construct": "expressed in transfected cells; host or cells: HEK293T", "T2 sequence (Q9UQD0 whole entry)": "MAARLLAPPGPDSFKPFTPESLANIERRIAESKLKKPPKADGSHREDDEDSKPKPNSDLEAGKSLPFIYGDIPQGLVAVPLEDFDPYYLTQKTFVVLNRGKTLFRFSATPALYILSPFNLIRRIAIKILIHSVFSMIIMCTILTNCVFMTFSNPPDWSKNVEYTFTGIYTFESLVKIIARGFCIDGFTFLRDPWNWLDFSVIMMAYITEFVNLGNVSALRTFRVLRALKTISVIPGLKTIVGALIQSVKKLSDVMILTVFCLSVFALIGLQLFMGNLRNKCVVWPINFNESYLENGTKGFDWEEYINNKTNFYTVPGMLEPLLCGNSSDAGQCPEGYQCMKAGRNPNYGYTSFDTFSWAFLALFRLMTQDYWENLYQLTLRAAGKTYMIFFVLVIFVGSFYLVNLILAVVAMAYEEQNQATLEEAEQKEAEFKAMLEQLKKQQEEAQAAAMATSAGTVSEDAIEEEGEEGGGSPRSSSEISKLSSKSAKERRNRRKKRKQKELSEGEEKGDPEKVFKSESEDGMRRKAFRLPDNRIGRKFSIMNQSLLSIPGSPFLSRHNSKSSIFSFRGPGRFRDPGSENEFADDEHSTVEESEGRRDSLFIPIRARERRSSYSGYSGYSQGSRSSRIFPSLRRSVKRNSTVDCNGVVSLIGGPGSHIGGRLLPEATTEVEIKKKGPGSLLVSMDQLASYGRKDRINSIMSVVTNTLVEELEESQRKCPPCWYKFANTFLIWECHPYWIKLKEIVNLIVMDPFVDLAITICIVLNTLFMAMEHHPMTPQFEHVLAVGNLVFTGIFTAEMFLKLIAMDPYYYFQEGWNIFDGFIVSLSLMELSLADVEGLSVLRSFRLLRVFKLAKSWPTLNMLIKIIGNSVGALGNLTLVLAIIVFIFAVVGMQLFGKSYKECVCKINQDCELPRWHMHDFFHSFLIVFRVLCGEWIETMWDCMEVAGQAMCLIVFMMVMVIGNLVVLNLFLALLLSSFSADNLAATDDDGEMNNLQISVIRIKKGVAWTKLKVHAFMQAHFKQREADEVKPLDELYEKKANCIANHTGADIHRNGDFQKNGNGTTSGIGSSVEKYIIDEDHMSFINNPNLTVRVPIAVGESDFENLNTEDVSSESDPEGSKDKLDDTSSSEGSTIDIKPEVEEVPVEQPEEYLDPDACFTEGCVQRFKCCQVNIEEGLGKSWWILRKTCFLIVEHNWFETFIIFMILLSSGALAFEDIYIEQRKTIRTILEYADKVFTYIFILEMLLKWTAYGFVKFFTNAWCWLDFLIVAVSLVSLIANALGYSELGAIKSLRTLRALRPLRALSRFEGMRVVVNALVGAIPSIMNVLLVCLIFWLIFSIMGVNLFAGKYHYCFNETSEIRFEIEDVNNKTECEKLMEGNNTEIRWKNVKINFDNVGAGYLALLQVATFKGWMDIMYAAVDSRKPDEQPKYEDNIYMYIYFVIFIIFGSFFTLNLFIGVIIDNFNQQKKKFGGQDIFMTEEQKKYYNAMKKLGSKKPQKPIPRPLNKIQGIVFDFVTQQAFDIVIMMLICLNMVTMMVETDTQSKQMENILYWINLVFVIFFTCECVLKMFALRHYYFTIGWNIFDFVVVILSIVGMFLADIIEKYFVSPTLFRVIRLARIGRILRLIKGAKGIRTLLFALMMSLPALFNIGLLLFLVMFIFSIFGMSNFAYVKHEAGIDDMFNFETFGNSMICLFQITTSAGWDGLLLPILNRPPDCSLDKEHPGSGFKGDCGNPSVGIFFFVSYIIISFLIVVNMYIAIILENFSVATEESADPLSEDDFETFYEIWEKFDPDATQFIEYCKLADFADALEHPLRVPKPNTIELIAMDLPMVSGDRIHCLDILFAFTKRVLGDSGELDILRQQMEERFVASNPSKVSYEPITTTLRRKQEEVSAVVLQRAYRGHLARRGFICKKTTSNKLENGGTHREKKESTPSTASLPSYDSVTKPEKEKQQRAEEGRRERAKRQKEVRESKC", "experiment": "Whole-cell patch-clamp, Nav1.6 in HEK293T cells", "assay_type": "cell-based", "settings": "mean ± SEM", "source_text": "as §1, with “cells.” for “cells. Human Nav1.9 was transfected into ND7/23 cells according to a previous report ([Zhou et al., 2017]).”\nas §2"}},
  "note": "Where two headings read alike, the source gives them in different places. Where a SMILES comes first, the peptide text is derived from it. Bridges are numbered along the chain shown (N, C = ends).",
  "data": [
    {"smiles": "CC(C)C[C@H](NC(=O)[C@H](CC(=O)O)NC(=O)[C@H](Cc1ccc(O)cc1)NC(=O)[C@H](CCCCN)NC(=O)[C@@H]1CSSC[C@@H]2NC(=O)[C@H](CCCCN)NC(=O)[C@H](CC(=O)O)NC(=O)[C@H](CC(N)=O)NC(=O)[C@H](CO)NC(=O)[C@@H]3CCCN3C(=O)[C@H](CC(N)=O)NC(=O)[C@@H]3CSSC[C@H](NC(=O)[C@H](C(C)C)NC(=O)[C@H](CC(C)C)NC(=O)[C@H](CO)NC(=O)[C@H](CO)NC(=O)[C@H](CO)NC(=O)[C@H](CCCCN)NC(=O)[C@H](CSSC[C@H](NC(=O)[C@H](C)N)C(=O)N[C@@H](CC(C)C)C(=O)NCC(=O)N[C@@H](Cc4ccccc4)C(=O)NCC(=O)N[C@@H](CCC(=O)O)C(=O)N[C@@H](CCCCN)C(=O)N3)NC2=O)C(=O)N[C@@H](CO)C(=O)N[C@@H](CCC(N)=O)C(=O)N[C@@H](CCCCN)C(=O)N[C@@H](Cc2c[nH]cn2)C(=O)N[C@@H](CCCCN)C(=O)N[C@@H](Cc2c[nH]c3ccccc23)C(=O)N1)C(=O)O", "note": "[Ca2a] (H-ACLGFGEKCNPSNDKCCKSSSLVCSQKHKWCKYDL-OH; disulfide 2-17, 9-24, 16-31 (inferred); N-terminus and C-terminus assumed)", "values": [
      {"measurement": "paw licking time, Phase I", "setting": "[1]; 0–15 min, 50 μg/kg i.p. 30 min before 5% formalin", "value": "80.1 ± 4.6", "unit": "s"},
      {"measurement": "paw licking time, Phase I", "setting": "[1]; 0–15 min, 100 μg/kg i.p. 30 min before 5% formalin", "value": "79.4 ± 9.5", "unit": "s"},
      {"measurement": "paw licking time, Phase I", "setting": "[1]; 0–15 min, 200 μg/kg i.p. 30 min before 5% formalin", "value": "75.6 ± 7.7", "unit": "s"},
      {"measurement": "analgesic effect on Phase I compared to control", "setting": "[1]; 0–15 min, Ca2a 50, 100, 200 μg/kg, morphine 100 μg/kg, i.p.", "value": "no analgesic effect"},
      {"measurement": "paw licking time, Phase II", "setting": "[1]; 15–40 min, 50 μg/kg i.p. 30 min before 5% formalin", "value": "100.9 ± 16.2", "unit": "s"},
      {"measurement": "paw licking time, Phase II", "setting": "[1]; 15–40 min, 100 μg/kg i.p. 30 min before 5% formalin", "value": "67.2 ± 20.2", "unit": "s"},
      {"measurement": "paw licking time, Phase II", "setting": "[1]; 15–40 min, 200 μg/kg i.p. 30 min before 5% formalin", "value": "40.5 ± 7.1", "unit": "s"},
      {"measurement": "analgesic effect on Phase II", "setting": "[1]; 15–40 min, 50, 100, 200 μg/kg i.p.", "value": "significant analgesic effect in a dose-dependent manner"},
      {"measurement": "analgesia relative to morphine, formalin test", "setting": "[1]; formalin, hot plate and writhing together, Ca2a vs morphine", "value": "dose-dependently equipotent or stronger analgesia than morphine"},
      {"measurement": "use/frequency dependence of inhibition for Nav1.7", "setting": "[2]; 1, 5 and 10 Hz", "value": "did not show obvious use/frequency dependence"},
      {"measurement": "IC50", "setting": "[2]; 5 Hz", "value": "244 ± 30.7", "unit": "nM"},
      {"measurement": "IC50", "setting": "[2]; 10 Hz", "value": "185 ± 23.8", "unit": "nM"},
      {"measurement": "decrease of Nav1.6 current amplitude", "setting": "[3]; 1 μM, 50 ms to −10 mV from −100 mV", "value": "78.7 ± 2.9", "unit": "%"},
      {"measurement": "IC50", "setting": "[3]; whole-cell patch-clamp, n = 4–7 cells per data point", "value": "314 ± 6.3", "unit": "nM"}
    ]}
  ]
}
